Measured values published in article PMC2677997 (Bioorganic & medicinal chemistry, 2009).

Target: BoNT/A LC (BoNTA-LC 1-425) (Clostridium botulinum, UniProt P0DPI0)
Type: biochemical

BoNT/A LC (BoNTA-LC 1-425), sequence (P0DPI0 1-425 limits assumed): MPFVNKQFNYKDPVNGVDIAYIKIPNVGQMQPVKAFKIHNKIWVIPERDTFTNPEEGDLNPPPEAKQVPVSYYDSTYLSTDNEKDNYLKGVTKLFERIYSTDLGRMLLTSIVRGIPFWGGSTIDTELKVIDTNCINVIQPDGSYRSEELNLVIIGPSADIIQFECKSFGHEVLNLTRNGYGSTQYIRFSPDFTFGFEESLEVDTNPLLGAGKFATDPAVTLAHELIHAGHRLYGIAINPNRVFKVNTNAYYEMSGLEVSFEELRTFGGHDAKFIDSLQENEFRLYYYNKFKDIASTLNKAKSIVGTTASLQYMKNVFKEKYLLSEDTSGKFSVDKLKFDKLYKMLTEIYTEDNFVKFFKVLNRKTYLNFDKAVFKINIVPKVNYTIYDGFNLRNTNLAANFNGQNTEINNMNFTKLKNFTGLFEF

SMILES | inhibitory activity
O=C(CO)Nc1cc(-c2ccc(Cl)cc2)n[nH]1 [Compound 6, N-(3-(4-Chlorophenyl)-1H-pyrazol-5-yl)-2-hydroxyacetamide] | abolishes all activity
CC(=O)Nc1cc(-c2ccc(Cl)cc2)n[nH]1 [Compound 7, N-(3-(4-Chlorophenyl)-1H-pyrazol-5-yl)acetamide] | abolishes all activity
